Assay results taken from ChEMBL document CHEMBL2016531, “Identification of NAE Inhibitors Exhibiting Potent Activity in Leukemia Cells: Exploring the Structural Determinants of NAE Specificity” (ACS Med Chem Lett, 2011).

Key:
[1] = target: Epidermal growth factor receptor (Homo sapiens) (UniProt P00533); experiment: Inhibition of EGFR assessed as remaining activity at 0.1 uM by radiolabeled kinase assay relative to control
[2] = target: T1, Tyrosine-protein kinase JAK3 (Homo sapiens) (UniProt P52333); experiment: Inhibition of JAK3 assessed as remaining activity at 0.1 uM by radiolabeled kinase assay relative to control
T1 sequence (whole entry): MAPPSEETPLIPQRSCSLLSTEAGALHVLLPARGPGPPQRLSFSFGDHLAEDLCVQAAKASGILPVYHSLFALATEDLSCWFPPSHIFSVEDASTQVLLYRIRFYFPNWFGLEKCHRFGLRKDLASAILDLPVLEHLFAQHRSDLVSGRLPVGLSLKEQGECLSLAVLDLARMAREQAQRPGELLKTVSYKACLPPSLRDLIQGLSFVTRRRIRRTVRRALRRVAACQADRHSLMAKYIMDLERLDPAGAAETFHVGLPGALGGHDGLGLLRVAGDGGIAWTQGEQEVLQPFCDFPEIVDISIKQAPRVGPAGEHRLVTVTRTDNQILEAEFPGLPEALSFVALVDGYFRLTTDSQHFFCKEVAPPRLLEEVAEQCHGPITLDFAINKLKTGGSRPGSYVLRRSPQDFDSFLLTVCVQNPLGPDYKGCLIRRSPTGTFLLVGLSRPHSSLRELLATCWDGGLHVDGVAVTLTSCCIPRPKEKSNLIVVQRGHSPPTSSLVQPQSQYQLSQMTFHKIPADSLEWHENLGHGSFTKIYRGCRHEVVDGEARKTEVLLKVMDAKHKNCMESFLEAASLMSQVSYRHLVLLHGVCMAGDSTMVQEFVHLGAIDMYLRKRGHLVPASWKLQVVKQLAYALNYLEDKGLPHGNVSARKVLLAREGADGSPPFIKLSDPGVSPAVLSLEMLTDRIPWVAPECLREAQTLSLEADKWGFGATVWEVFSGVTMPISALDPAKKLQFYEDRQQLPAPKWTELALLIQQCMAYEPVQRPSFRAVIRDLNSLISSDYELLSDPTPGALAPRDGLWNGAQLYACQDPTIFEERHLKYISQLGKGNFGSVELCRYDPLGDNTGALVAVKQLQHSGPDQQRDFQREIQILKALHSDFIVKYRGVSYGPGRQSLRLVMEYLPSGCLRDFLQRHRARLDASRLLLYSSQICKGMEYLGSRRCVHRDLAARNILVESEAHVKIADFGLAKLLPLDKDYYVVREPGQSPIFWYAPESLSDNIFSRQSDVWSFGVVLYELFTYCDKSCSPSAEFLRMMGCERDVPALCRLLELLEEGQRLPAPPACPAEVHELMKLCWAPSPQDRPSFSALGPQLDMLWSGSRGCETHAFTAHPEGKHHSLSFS

Sequence of Epidermal growth factor receptor (Homo sapiens) (P00533 whole entry): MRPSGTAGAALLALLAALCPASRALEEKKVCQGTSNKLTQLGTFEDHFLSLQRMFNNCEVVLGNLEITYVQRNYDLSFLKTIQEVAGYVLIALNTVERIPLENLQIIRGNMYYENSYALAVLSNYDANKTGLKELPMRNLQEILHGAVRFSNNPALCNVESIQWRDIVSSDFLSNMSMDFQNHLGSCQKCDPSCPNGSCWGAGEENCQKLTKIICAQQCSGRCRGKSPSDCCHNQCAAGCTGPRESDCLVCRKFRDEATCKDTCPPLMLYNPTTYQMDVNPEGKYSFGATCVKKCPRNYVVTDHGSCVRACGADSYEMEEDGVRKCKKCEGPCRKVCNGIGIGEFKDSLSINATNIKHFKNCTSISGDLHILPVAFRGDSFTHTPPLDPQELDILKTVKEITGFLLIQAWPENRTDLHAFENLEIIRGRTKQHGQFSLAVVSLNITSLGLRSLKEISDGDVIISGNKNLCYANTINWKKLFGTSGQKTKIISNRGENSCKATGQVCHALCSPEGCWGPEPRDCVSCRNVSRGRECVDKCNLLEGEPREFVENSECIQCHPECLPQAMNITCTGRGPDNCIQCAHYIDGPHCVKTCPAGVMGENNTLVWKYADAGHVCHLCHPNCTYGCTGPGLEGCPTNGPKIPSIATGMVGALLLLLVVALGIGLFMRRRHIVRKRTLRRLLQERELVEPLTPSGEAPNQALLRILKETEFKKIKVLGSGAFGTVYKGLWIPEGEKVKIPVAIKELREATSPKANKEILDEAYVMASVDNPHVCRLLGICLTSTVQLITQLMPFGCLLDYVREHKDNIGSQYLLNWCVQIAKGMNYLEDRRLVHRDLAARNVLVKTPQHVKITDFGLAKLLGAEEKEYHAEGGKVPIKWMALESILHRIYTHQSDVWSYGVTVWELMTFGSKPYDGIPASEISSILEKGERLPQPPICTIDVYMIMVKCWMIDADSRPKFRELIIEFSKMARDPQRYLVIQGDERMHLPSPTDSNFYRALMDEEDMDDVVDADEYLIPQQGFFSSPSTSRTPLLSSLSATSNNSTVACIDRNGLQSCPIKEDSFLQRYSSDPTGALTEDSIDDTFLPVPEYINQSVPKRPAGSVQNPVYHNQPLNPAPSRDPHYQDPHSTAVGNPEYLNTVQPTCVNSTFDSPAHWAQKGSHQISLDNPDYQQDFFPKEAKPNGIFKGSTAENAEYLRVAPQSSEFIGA

Activity [1]: 98.9%
Activity [2]: 94%
Structure (SMILES): CCCCCCNc1ncnc2c1ncn2[C@@H]1O[C@H](COS(N)(=O)=O)[C@@H](O)[C@H]1O
